Measured values as given in patent US6716628B2, “Chondrogenesis promoters and indolin-2-one derivatives” (Chugai Seiyaku Kabushiki Kaisha, priority 1999, dated 2004).

How the values were obtained:
Type in all cases: cell-based
[1] = test system: rat primary culture articular chondrocytes; assay: Uptake of 35S-labeled sulfuric acid into glycosaminoglycan (cartilage matrix synthesis); conditions: 10 μmol/L of compound, vs ethanol 1% final concentration control solvent
From the text: (§1) Articular chondrocytes were trimmed from the femoral knee joint of 6-week-old male SD rats (Nihon SLC Corp.) using a scalpel, and then digested in 0.3% collagenase (WORTHINGTON Corp.) and cultivated (Calcif. Tissue Int. 19:179-187,1975).
The isolated articular chondrocytes were used to measure glycosaminoglycan synthesis in the cartilage matrix by measurement of the uptake of ^35S-labeled sulfuric acid (Amersham Co., Ltd.) into glycosaminoglycan. Specifically, the articular chondrocytes were cultured in a 96-well cell culturing plate (FALCON Corp.) to a cell density of 10,000 per well. […]
When the chondrocytes reached confluency, the medium was exchanged with one having a serum concentration of 0.3% and culturing was carried out overnight, after which the medium was exchanged with the same type also containing 10 μmol/L of compound A, and then after 3 hours, ^35S-labeled sulfuric acid (Amersham Co., Ltd.) was added at 0.5 μCi per well and culturing was carried out for 24 hours. […] The sample was then filtered with glass fiber filter paper (Toyo Filter Paper Corp.), the filter paper was washed 3 times with 2 mL of 1% cetylpyridinium chloride (20 mmol/L), one each was placed in a liquid scintillation counting vial (PACKARD Corp.), 10 mL of scintillator (Nacalai Tesque Corp.) was poured in, and the radioactivity was measured with a liquid scintillation counter (PACKARD Corp.).

[2] = test system: rat primary culture articular chondrocytes; assay: Uptake of 3H-labeled thymidine (cell growth); conditions: 10 μmol/L of compound, vs control solvent
Procedure: as §1
Uptake of ^3H-labeled thymidine (Amersham Corp.) was measured to determine the cell growth. For the measurement, the isolated articular chondrocytes were cultured in a 96-well cell culturing plate (FALCON Corp.) to a cell density of 10,000 per well. The medium used was an equivalent mixture of Dulbecco MEM containing fetal bovine serum (final concentration: 10%), 100 U/mL of penicillin (Meiji Seika Co., Ltd.) and 100 μg/mL of streptomycin (Banyu Pharmaceutical Corp.), and Ham F-12 medium (both by GIBCO Corp.). After 60-70% of the cells reached confluency, the medium was exchanged with one having a fetal bovine serum concentration of 0.3% and culturing was carried out overnight. On the following day, the medium was exchanged with the same type also containing compound A at a final concentration of 0.1, 1.0 or 10 μmol/L and 0.3% fetal bovine serum. […] The filter paper was soaked with plastic scintillator (Wallac Corp.), and the radioactivity was measured with a scintillation counter (Wallac Corp.). […]

[3] = test system: common mouse chondrocyte and adipocyte precursor cell line (CL-1); assay: Differentiation of CL-1 into chondrocytes, alcian blue/oil red O double staining; conditions: 10 μmol/L, 7 days after confluency, vs vehicle control
Procedure: […] (WO98/39414) were cultured in a 4-well chamber slide (Nunc Corp.) to a cell density of 5000/cm^2. The medium used was A-MEM (GIBCO Corp.) containing 100 U/mL of penicillin (Meiji Seika Co., Ltd.), 100 μg/mL of streptomycin (Banyu Pharmaceutical Corp.) and 10% fetal bovine serum (INTERGEN Corp.). When the CL-1 cells reached confluency, compound A was added to a final concentration of 10 μmol/L, with further addition when the medium was exchanged 3 times a week during culturing for 7 days.
A slide was also prepared with ethanol (Junsei Chemical Corp.) to a final concentration of 1% in the medium as a vehicle control. On the 7th day after confluency, the plates were collected, the CL-1 cell layer was double-stained with alcian blue and oil red O, and differentiation to chondrocytes or adipocytes was observed. After culturing was completed, the cell layer was fixed for one hour at room temperature with a 4% paraformaldehyde solution (Wako Pure Chemical Industries) and then washed with 0.1N hydrochloric acid and stained overnight with an aqueous solution (pH 1.0) of 1% alcian blue (EM Science Corp.). […]

[4] = test system: common mouse chondrocyte and adipocyte precursor cell line (CL-1); assay: Uptake of 35S-labeled sulfuric acid into CL-1; conditions: 10 μmol/L (A and F also 1 or 5 μmol/L), 48 h culture

CCOC(CN1C(=O)[C@](CC(=O)Nc2ccc(C)cc2)(NC(=O)Nc2ccc(C)cc2)c2ccccc21)OCC [Compound A, (+)-1-(2,2-diethoxyethyl)-3-((4-methylphenyl)aminocarbonylmethyl)-3-(N′-(4-methylphenyl)ureido)indolin-2-one]
uptake of 35S-labeled sulfuric acid [1]: significantly increased
uptake of 3H-labeled thymidine [2]: significantly increased
differentiation of CL-1 to adipocytes (oil red O) [3]: suppressed
differentiation of CL-1 to chondrocytes (alcian blue) [3]: clearly promoted
differentiation of CL-1 to adipocytes [4]: clearly suppress
